Results: patent publication US9108947B2, “Inhibitors of the Renal Outer Medullary Potassium channel” (Merck Sharp & Dohme Corp., priority 2011, dated 2015)

How the values were obtained:
hROMK (hKir1.1) = hROMK (hKir1.1) (Homo sapiens (Human), UniProt P48048); assay: Thallium Flux Assay (ROMK channel functional thallium flux, FLIPR-Tetra); type: cell-based; details: HEK293 cells stably expressing hROMK (hKir1.1); 30 min compound incubation
Description: (§1) Several assays may be used to measure functional inhibition of the ROMK channel by compounds of the instant invention. One assay that can be used is an electrophysiology assay that measures the electrical current that is generated as potassium permeates through the channel. Another ROMK functional assay makes use of the ability of thallium to permeate through open ROMK channels and increase the fluorescence of a dye previously loaded into the cells. Under control conditions, cells loaded with dye and exposed to thallium-containing medium display a time-dependent increase in fluorescence, the rate of which depends on number of functional channels. When cells are incubated in the presence of a channel inhibitor, the increase in fluorescence is attenuated in a concentration-dependent manner, and IC50 values of inhibition by compounds can be accurately determined. This assay has been established with cell lines expressing either human, or rat ROMK channels, and operates in 384-well format.
HEK293 cells stably expressing hROMK (hKir1.1) were grown at 37° C. in a 10% CO2 humidified incubator in complete growth media: Dulbecco's Modified Eagle Medium supplemented with non-essential amino acids, Penicillin/Streptomycin/Glutamine, G418 and FBS. At >80% confluency, the media was aspirated from the flask and the sample was rinsed with 10 ml Calcium/Magnesium-free PBS. […] To dislodge the cell, the side of the flask was gently banged with a hand. The cells were triturated completely and then transferred to 25 ml complete media. The sample was then centrifuged at 1,500 rpm for 6 minutes, followed by resuspension in complete growth media and then cell concentration was determined. […] Under ideal growth conditions and appropriate tissue culture practices, this cell line is stable for 40-45 passages.
• FluxOR™ Reagent (Component A) • FluxOR™ Assay Buffer (Component B)—10× Concentrate • PowerLoad™ Concentrate (Component C)—100× Concentrate • Probenecid (Component D) Lyophilized sample is kept at −20° C. Water soluble, 100× after solubilization in 1 ml water. […] Store at 4° C. • Thallium sulfate (Tl2SO4) Concentrate (Component G)—50 mM in water. […] Can be stored at room temperature • Stimulant Buffer (prepared at 5× final concentration in 1× FluxOR™Chloride-Free Buffer): 7.5 mM Thallium sulfate and 0.75 mM Potassium sulfate (to give a final assay concentration of 3 mM Thallium 0.3 mM Potassium). Store at 4° C. when not in use. If kept sterile, this solution is good for months. Assay Protocol—
The ROMK channel functional thallium flux assay is performed in 384 wells, using the FLIPR-Tetra instrument. HEK-hKir1.1 cells are seeded in Poly-D-Lysine microplates and kept in a 37° C.-10% CO2 incubator overnight. On the day of the experiment, the growth media is replaced with the FluxOR™ reagent loading buffer and incubated, protected from light, at ambient temperature (23-25° C.) for 90 min. The loading buffer is replaced with assay buffer±test compound followed by 30 min incubation at ambient temperature, where the Thallium/Potassium stimulant is added to the microplate.
• 1. Seed HEK-hKir1.1 cells (50 μl at 20,000 cells/well) in 384-well PDL coated Microplates • 2. Allow cells to adhere overnight in humidified 37° C./10% CO2 incubator • 3. Completely remove cell growth media from microplate and replace with 25 μl loading buffer • 4. Incubate Microplate at room temperature, protected form light, for 90 min • 5. Remove loading buffer and replace with 25 μl 1× Assay Buffer±test compound. • 6. Incubate microplate at room temperature, protected form light, for 30 min • 7. […] Excitation=400 nm, Emission=460 & 580 nm. Collect data for 10 min. Data Calculation—
The fluorescence intensity of wells containing 3 μM of a standard control ROMK inhibitor of the present invention is used to define the ROMK-sensitive component of thallium flux. Fluorescence in the presence of test compounds is normalized to control values to provide % fluorescence change.

Kir1.1 (ROMK1) = Kir1.1 (ROMK1) (Homo sapiens (Human), UniProt P48048); assay: Electrophysiology Assay (whole cell voltage clamp, IonWorks Quattro); type: cell-based; details: Chinese hamster ovary cells stably expressing Kir1.1; block during voltage step to 0 mV; 6 minutes compound incubation; read-out: EP Assay IC50
Description: as §1
Chinese hamster ovary cells stably expressing Kir1.1 channels were maintained in T-75 flasks in cell culture media in a humidified 10% CO2 incubator at 37° C. Prior to an experiment, Kir1.1 expression was induced by overnight incubation with 1 mM sodium butyrate. […] After centrifugation, the cell pellet was resuspended in approximately 4.0 ml of bath solution and placed in the IonWorks® instrument. The intracellular solution consisted of (in mM): 80 K gluconate, 40 KCl, 20 KF, 3.2 MgCl2, 3 EGTA, 5 Hepes, pH 7.4. Electrical access to the cytoplasm was achieved by perforation in 0.13 mg/ml amphotericin B for 4 minutes.
Voltage protocols and current recordings were performed using the IonWorks® HT software/hardware system. Currents were sampled at 1 kHz. No correction for liquid junction potentials was used. The test pulse, consisting of a 100 ms step to 0 mV from a holding potential of −70 mV, followed by a 100 ms voltage ramp from −70 mV to +70 mV, was applied before and after a 6 minutes compound incubation period. Test compounds were prepared by diluting DMSO stock solutions into the bath solution at 3× the final concentration and placed in the instrument in 96-well polypropylene plates. Current amplitudes were measured using the IonWorks® software.

Sequence of Kir1.1 (ROMK1) (P48048 whole entry, species assumed): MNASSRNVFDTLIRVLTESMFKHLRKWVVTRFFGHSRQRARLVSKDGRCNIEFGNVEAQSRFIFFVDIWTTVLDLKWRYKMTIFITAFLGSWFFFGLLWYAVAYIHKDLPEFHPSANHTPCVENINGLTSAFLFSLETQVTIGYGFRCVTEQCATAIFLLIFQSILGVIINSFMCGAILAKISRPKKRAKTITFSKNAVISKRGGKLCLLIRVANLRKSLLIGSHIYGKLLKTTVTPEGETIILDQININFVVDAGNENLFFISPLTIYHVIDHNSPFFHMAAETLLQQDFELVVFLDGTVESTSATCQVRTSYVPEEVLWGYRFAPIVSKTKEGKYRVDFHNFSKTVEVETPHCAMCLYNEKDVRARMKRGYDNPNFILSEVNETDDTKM
Sequence of hROMK (hKir1.1) (P48048 whole entry): as the sequence (P48048 whole entry, species assumed) above

`Cc1c([C@@H](O)CN2CCCC2CNc2ccc(C#N)cn2)ccc2c1COC2=O` (some centres unmarked) [Example 18] gave an IC50 (hROMK (hKir1.1)) of 534 nM and an IC50 (Kir1.1 (ROMK1)) of 65 nM.

For `Cc1c([C@@H](O)CN2CCCC2CNCC(O)c2ccc(C#N)cn2)ccc2c1COC2=O` (single isomer, unassigned) [Example 9A], the IC50 (hROMK (hKir1.1)) was 188 nM and the IC50 (Kir1.1 (ROMK1)) was 321 nM.

`Cc1c(C(O)CN2CC[C@@H](NC[C@H](O)c3ccc4c(c3C)COC4=O)C2)ccc2c1COC2=O` (stereo in doubt) [Example 1, 5-{(1R)-1-Hydroxy-2-[(3R)-3-{[(2R)-2-hydroxy-2-(4-methyl-1-oxo-1,3-dihydro-2-benzofuran-5-yl)ethyl]amino}pyrrolidin-1-yl]ethyl}-4-methyl-2-benzofuran-1(3H)-one] was tested, and the IC50 (hROMK (hKir1.1)) was 414 nM and the IC50 (Kir1.1 (ROMK1)) was 595 nM.

For `Cc1c([C@@H](O)CN[C@@H]2CCN(CC(O)c3ccc(C#N)cn3)C2)ccc2c1COC2=O` (stereo partly drawn) [Example 12, 6-(1-Hydroxy-2-((R)-3-((R)-2-hydroxy-2-(4-methyl-1-oxo-1,3-dihydroisobenzofuran-5-yl)ethylamino)pyrrolidin-1-yl)ethyl)nicotinonitrile], the IC50 (hROMK (hKir1.1)) was 542 nM and the IC50 (Kir1.1 (ROMK1)) was 1370 nM.

Compound `Cc1c([C@@H](O)CNCC2CCCN2C[C@H](O)c2ccc3c(c2C)COC3=O)ccc2c1COC2=O` (stereo partly drawn) [Example 3, 5-{(1R)-1-Hydroxy-2-[2-({[(2R)-2-hydroxy-2-(4-methyl-1-oxo-1,3-dihydro-2-benzofuran-5-yl)ethyl]amino}methyl)pyrrolidin-1-yl]ethyl}-4-methyl-2-benzofuran-1(3H)-one] has an IC50 (hROMK (hKir1.1)) of 176 nM and an IC50 (Kir1.1 (ROMK1)) of 510 nM.

With `Cc1c([C@@H](O)CNC2C[C@H]3C[C@@H]2N(C[C@H](O)c2ccc4c(c2C)COC4=O)C3)ccc2c1COC2=O` (single isomer, unassigned) [Example 17A] the IC50 (hROMK (hKir1.1)) was 500 nM and the IC50 (Kir1.1 (ROMK1)) was 1420 nM.

`Cc1c([C@@H](O)CNC2(C3CCN(C[C@H](O)c4ccc5c(c4C)COC5=O)C3)CCC2)ccc2c1COC2=O` (stereo partly drawn) [Example 2, 5-{(1R)-1-Hydroxy-2-[3-(1-{[(2R)-2-hydroxy-2-(4-methyl-1-oxo-1,3-dihydro-2-benzofuran-5-yl)ethyl]amino}cyclobutyl)pyrrolidin-1-yl]ethyl}-4-methyl-2-benzofuran-1(3H)-one] showed an IC50 (hROMK (hKir1.1)) of 172 nM and an IC50 (Kir1.1 (ROMK1)) of 420 nM.
